Experimental data: patent US20020048812A1, “Isolation and in vitro differentiation of conditionally immortalized murine olfactory receptor neurons” (priority 2000, published 2002)
“Also recorded” adds a separate entry of the source.

How the values were obtained:
Type in all cases: cell-based, mouse
3NA12 cells = assay: Calcium imaging (Fura-2) of odorant responses in clone 3NA12; details: 10 μM single odorant; for Cells responding to each odorant: 1256 cells; for Cells responding to the odorant (increase in intracellular calcium concentration): total of 1256 cells in nineteen experiments, permissive conditions
Protocol: Prior to experiments (2-4 days), cells were plated onto glass coverslips and incubated in permissive conditions. To prepare for stimulation, cells were loaded with Fura-2 ([…]) for 30 minutes at 33° C., washed, and allowed to equilibrate for a further 30 minutes at room temperature. At the beginning of the experiment, cells were washed (W) to determine whether the mechanical disturbance associated with changing solution affected intracellular calcium concentrations.
To determine whether cells from the 3NA12 clone were capable of functional responses to odorants, single odorants were applied to cells loaded with Fura-2. […] Since the onset of odorant receptor expression is at c. E13 in the rat (Strotmann et al., 1995), and each of the components of the signal transduction pathway is present in cells cultured in permissive conditions, cells at permissive conditions were chosen for all subsequent experiments.
Cloned olfactory receptor neurons were plated onto glass coverslips up to one week before imaging. On the day of analysis, the culture medium was removed and replaced with MDV containing 2 μM Fura-2-AM (Molecular Probes, Eugene, Oreg.) and 0.2% Pluronic F-127 (Sigma) dissolved in DMSO. Cells were incubated at appropriate culture temperatures (33° C. or 37° C.) for at least 30 minutes, rinsed and allowed to equilibrate in medium for 30 minutes prior to experiments. Additionally, to ensure that a response could not be induced mechanically, each experiment was started by washing the cells with bath solution in the same manner used in odorant application. For solution exchange, 5 ml of bath solution or odorant test solution was pipeffed manually into the bath (volume, 300 μl) fitted with a continual suction pump. This ensured complete replacement of the bath solution with the incoming solution without altering bath volume. Single odorants were applied to the cloned cell line 3NA12 and mixtures of odorants were applied to primary cultures of mouse olfactory bulb neurons and rat ORNs. […] When single odorants were used, they were taken from Mixture 2. Stock solutions of odorants (20 mM in DMSO) were made up every second day and diluted 1:2000 in bath solution (final concentration, 10 μM each) within seconds of application. The bath solution contained 140 mM NaCl, 5 mM KCl, 2 mM CaCl2, 10 mM HEPES and 10 mM glucose at pH 7.4. Calcium imaging was performed as described previously (Krautwurst et al., 1998; Grynkiewicz et al., 1985), in which ratiometric measurements were obtained using the Zeiss/Attofluor-Ratiovision imaging system on a Zeiss Axiovert 135 microscope fitted with an F Fluor 20×/1.30 lens. Cells were illuminated at 340 nm and 380 nm and the emission at 510 nm was monitored using an intensified CCD camera. The Attofluor-Ratiovision software was used to derive the Ca^2+-dependent ratio. Solutions of CaCl2 (1 mM) and EDTA (1 mM) containing Fura-2 pentasodium salt ([…], Molecular Probes) were used to provide a two-point calibration of the experimental set-up as directed by the instrument manufacturer (Atto Instruments, Rockville, Md.).

[1] = test system: NST+ cells in the heterogeneous culture; assay: Counting NST+ cells (anti-NST labeling) in heterogeneous olfactory cell cultures with growth factors; details: for Effect on the number of NST+ cells (in words): permissive conditions (33° C.)
Protocol: FIG. 2A. Interferon causes a significant, dose-dependent increase in the number of NST+ cells in the heterogeneous culture, with an EC50 of 0.4 U.ml^−1. Cells were incubated at 33° C. and were stained with anti-NST and rhodamine-coupled secondary antibodies seven days after plating. Cell counts were obtained from ten randomly selected areas in each experiment. Data were normalized to the mean number of NST+ cells in the absence of interferon and each point represents the mean ±S.E.M from three experiments.
FIG. 2B. EGF (•) and NGF (□) both have mitogenic effects in permissive conditions over and above the effect of interferon. NST+ cells were counted as described in (A) and were normalized to baseline levels in the presence of interferon (40 U.ml^−1). […] Except for the presence of interferon (40 U.ml^−1), all experimental conditions were as in A.
To determine the optimal conditions for cell survival, growth, differentiation and maturation, cells were cultured in permissive and non-permissive conditions in the presence of interferon, EGF, NGF, BDNF and NT-3. […] The effects of EGF, NGF, BDNF and NT-3 on cell maturation in non-permissive culture conditions were
To keep the amount of expressed TAg to the minimum required for immortalization (Noble et al., 1995), heterozygous offspring from homozygous male H-2K^b-tsA58 transgenic and C57B1 female mice (Charles River Laboratories, Wilmington Mass., and Jackson Laboratory, Bar Harbor, Me., respectively) were used to generate the conditionally immortal neuronal cell culture. Cells were isolated in a procedure modified from a previously established technique (Ronnett et al., 1991). Briefly, post-natal day 1-3 animals were decapitated and the heads were sectioned longitudinally. The olfactory epithelium and nasal septum were removed and placed in an Eppendorf tube containing 500 μl culture medium. The culture medium consisted of Minimum Essential Medium in which the L-valine has been replaced by D-valine (MDV). This was supplemented with 10% fetal bovine serum (FBS), 4 mM glutamine, kanamycin (100 μg.ml^−1), gentamicin (50 U.ml^−1) and amphotericin B (2.5 μg.ml^−1; all from Gibco BRL, Gaithersburg, Md.). The MDV medium was chosen because fibroblasts lack D-amino acid oxidase and the reduction of L-valine inhibits fibroblast survival and growth (Gilbert et al., 1986). Tissue was centrifuged at low speed for two minutes and then most of the medium was removed. The cell pellet was chopped briefly with a pair of fine-point scissors before being resuspended in supplemented cell culture medium. The resultant cell clumps and cell suspension were plated out onto 2- or 4-chamber glass slides (Nunc, Naperville, Ill.) or plastic dishes (Fisher Scientific, Pittsburgh, Pa.). To enhance ORN adhesion, all cell culture materials were pretreated with laminin (0.125 mg.ml^−1 in serum-free media, Collaborative Biomedical Products, Bedford, Mass.) for at least 12 hours, prior to plating. Cells were maintained in culture at 33° C. (the permissive temperature for the SV40 TAg) and, to stimulate transcription of the transgene, the culture medium was supplemented with murine γ-interferon (40 U.ml^−1, Genzyme, Cambridge, Mass.). Provisionally, in permissive conditions, the cell culture medium was supplemented with epidermal growth factor (EGF, 20 ng.ml^−1, Gibco BRL) and 2.5 S nerve growth factor (NGF, 10 ng.ml^−1, Gibco BRL) before thorough characterizations of their effects were made in later experiments.
To determine optimum conditions for cell survival, growth, differentiation or maturation, numerous combinations of culture conditions were tested. These included i) removal of the olfactory epithelium from newborn, 4-week-old, and sexually mature animals, ii) subjecting tissue to digestion by trypsin (Gibco BRL, 0.5 g.l^−1 for 60 minutes at 37° C.), iii) addition of growth factors to the culture medium and iv) the use of diverse culture media. […]

[2] = test system: olfactory marker protein (OMP); assay: OMP expression by Western blot in cells in non-permissive conditions; details: 37° C., heterogeneous cell cultures, 15 μg protein per lane
Protocol: FIG. 2C. Effects of EGF, NGF, BDNF and NT-3 on OMP expression as determined by Western blot. Cells were maintained in non-permissive conditions at 37° C. in the absence of growth factors (C) or in presence of EGF (E), NGF (N), BDNF (B) or NT-3 (3). Samples were isolated from the heterogeneous cell cultures and from olfactory tissue (T), and were separated on a SDS-polyacrylamide gel (15 μg protein per lane). OMP is a 19 kD protein and, in situ, is expressed only in mature olfactory receptor neurons. OMP was not detected in control cells (C), cultured in the absence of growth factors or in cells incubated in the presence of EGF.
assayed by Western blot detection of olfactory marker protein (OMP), a marker of mature olfactory receptor neurons (Margolis, 1988).
Cells were always maintained in permissive culture conditions except when attempts were made to obtain a differentiated phenotype through transgene inactivation. In this case, cells were incubated in non-permissive culture conditions, i.e. at 37° C. in γ-interferon-free media for seven days, before the effects of transgene inactivation were determined. The effects of EGF, NGF, BDNF and NT-3 in promoting cell maturation/differentiation were assessed and, based on those experiments, BDNF and NT-3 were routinely added to the culture medium for cells in non-permissive culture conditions. In both culture environments, the air was kept humidified and contained 5% CO2.
Cells were scraped into a cold isolation buffer containing 20 mM Na(N-tris[hydroxymethyl]methyl-2-aminoethanesulfonic acid) (Na TES), 10 mM mannitol and 1% Triton X-100 at pH 7.4. The isolation buffer was supplemented with phenylmethylsulfonyl fluoride (30 μg.ml^−1), leupeptin (2 μg.ml^−1), benzamidine (16 μg.ml^'1), pepstatin (2 μg.ml^−1), and lima bean trypsin inhibitor (50 μg.ml^−1) to prevent protease activity. After five freeze/thaw cycles, cell extracts were centrifuged at 2,000 g for 5 minutes to pellet nuclei and cell debris. […]

[3] = 33° C., 100 ng.ml^−1, in the presence of 40 U.ml^−1 interferon, normalized to that point

CCCCCCC=O [heptaldehyde]
Cells responding to each odorant (3NA12 cells): ~1% | Cells responding to the odorant (increase in intracellular calcium concentration) (3NA12 cells): 17 cells

EGF: epidermal growth factor (Gibco BRL)
Normalized # of NST+ Cells ([1]; 33° C., 10 ng.ml^−1, in the presence of 40 U.ml^−1 interferon, normalized to that point): 1.7 ± 0.2 | Effect on the number of NST+ cells (in words) [1]: increased the number of NST+ cells; also recorded: greatest increase of NST+ cells

L-carvone
Cells responding to each odorant (3NA12 cells): ~1% | Cells responding to the odorant (increase in intracellular calcium concentration) (3NA12 cells): 16 cells

CC(=O)c1ccccc1 [acetophenone]
Cells responding to each odorant (3NA12 cells): ~1% | Cells responding to the odorant (increase in intracellular calcium concentration) (3NA12 cells): 15 cells

Interferon: murine γ-interferon (Genzyme), stimulates transcription of the transgene
EC50 (increase in number of NST+ cells) ([1]; 33° C., permissive, seven days after plating, sigmoidal curve fit): 0.4 U.ml^−1 | Normalized # of NST+ Cells ([1]; 33° C., interferon 40 U.ml^−1, normalized to NST+ cells cultured in the absence of interferon): 2.0 ± 0.2 | Normalized # of NST+ Cells ([1]; 37° C., interferon 40 U.ml^−1, normalized to absence of interferon): 1.9 ± 0.1 | Effect on the number of NST+ cells (in words) [1]: significant increase

B1: BDNF: brain-derived neurotrophic factor (Peprotech) (protein, UniProt P23560 129-247, looked up)
Neurotrophic factor BDNF: HSDPARRGELSVCDSISEWVTAADKKTAVDMSGGTVTVLEKVPVSKGQLKQYFYETKCNPMGYTKEGCRGIDKRHWNSQCRTTQSYVRALTMDSKKRIGWRFIRIDTSCVCTLTIKRGR
modifications: Neurotrophic factor BDNF
Normalized # of NST+ Cells [1, 3]: 1.3 ± 0.2 | Normalized # of NST+ Cells ([1]; 37° C., 100 ng.ml^−1): 1.3 ± 0.2 | Effect on the number of NST+ cells (in words) [1]: no effect | OMP expression detected by Western blot (in words) [2]: significant expression of OMP could be observed; also recorded: to a lesser degree, was detected

B2: NGF: 2.5 S nerve growth factor (Gibco BRL) (protein, UniProt P01139 122-241, looked up)
Beta-nerve growth factor: SSTHPVFHMGEFSVCDSVSVWVGDKTTATDIKGKEVTVLAEVNINNSVFRQYFFETKCRASNPVESGCRGIDSKHWNSYCTTTHTFVKALTTDEKQAAWRFIRIDTACVCVLSRKATRRG
modifications: Beta-nerve growth factor
Normalized # of NST+ Cells [1, 3]: 1.5 ± 0.2 | Effect on the number of NST+ cells (in words) [1]: increased the number of NST+ cells | OMP expression detected by Western blot (in words) [2]: barely detectable
